# Laboratory results taken from patent US10513522B2, “Azetidinyl phenyl, pyridyl or pyrazinyl carboxamide derivatives as JAK inhibitors” (Incyte Corporation, priority 2011, dated 2019).
# Tested on: human JAK1 (a.a. 837-1142)
# Experiment: In vitro JAK kinase assay (HTRF, phosphorylation of biotinylated peptide), JAK1
# Type: biochemical
# Conditions: ratio of IC50 at 1 mM ATP
# Procedure: The catalytic activity of JAK1, JAK2 or JAK3 was assayed by measuring the phosphorylation of a biotinylated peptide. The phosphorylated peptide was detected by homogenous time resolved fluorescence (HTRF). […] Reactions were carried out at room temperature for 1 hour and then stopped with 20 μL 45 mM EDTA, 300 nM SA-APC, 6 nM Eu-Py20 in assay buffer (Perkin Elmer, Boston, Mass.). Binding to the Europium labeled antibody took place for 40 minutes and HTRF signal was measured on a Fusion plate reader (Perkin Elmer, Boston, Mass.).
row,Structure (SMILES),JAK2/JAK1
1,"CC(C)NC(=O)c1ccc(N2CC(CC#N)(n3cc(-c4ccnc5[nH]ccc45)cn3)C2)cc1 [Example 1, 4-{3-(Cyanomethyl)-3-[4-(1H-pyrrolo[2,3-b]pyridin-4-yl)-1H-pyrazol-1-yl]azetidin-1-yl}-N-isopropylbenzamide]",A (A means greater than or equal to 10)
2,"C[C@H](NC(=O)c1ccc(N2CC(CC#N)(n3cc(-c4ccnc5[nH]ccc45)cn3)C2)cn1)C1CC1 [Example 2, 5-{3-(Cyanomethyl)-3-[4-(1H-pyrrolo[2,3-b]pyridin-4-yl)-1H-pyrazol-1-yl]azetidin-1-yl}-N-[(1S)-1-cyclopropylethyl]pyridine-2-carboxamide]",A (A means greater than or equal to 10)
3,"C[C@@H](NC(=O)c1ccc(N2CC(CC#N)(n3cc(-c4ncnc5[nH]ccc45)cn3)C2)c(F)c1)C1CC1 [Example 4, 4-{3-(Cyanomethyl)-3-[4-(7H-pyrrolo[2,3-d]pyrimidin-4-yl)-1H-pyrazol-1-yl]azetidin-1-yl}-N-[(1R)-1-cyclopropylethyl]-3-fluorobenzamide]",A (A means greater than or equal to 10)
4,"C[C@H](NC(=O)c1ccc(N2CC(CC#N)(n3cc(-c4ncnc5[nH]ccc45)cn3)C2)c(F)c1)C1CC1 [Example 5, 4-{3-(Cyanomethyl)-3-[4-(7H-pyrrolo[2,3-d]pyrimidin-4-yl)-1H-pyrazol-1-yl]azetidin-1-yl}-N-[(1S)-1-cyclopropylethyl]-3-fluorobenzamide]",A (A means greater than or equal to 10)
5,"CN(C(=O)c1ccc(N2CC(CC#N)(n3cc(-c4ncnc5[nH]ccc45)cn3)C2)c(F)c1)C1CC1 [Example 7, 4-{3-(Cyanomethyl)-3-[4-(7H-pyrrolo[2,3-d]pyrimidin-4-yl)-1H-pyrazol-1-yl]azetidin-1-yl}-N-cyclopropyl-3-fluoro-N-methylbenzamide]",A (A means greater than or equal to 10)
6,"C[C@H](NC(=O)c1ccc(N2CC(CC#N)(n3cc(-c4ncnc5[nH]ccc45)cn3)C2)cn1)C1CC1 [Example 11, 5-{3-(Cyanomethyl)-3-[4-(7H-pyrrolo[2,3-d]pyrimidin-4-yl)-1H-pyrazol-1-yl]azetidin-1-yl}-N-[(1S)-1-cyclopropylethyl]pyridine-2-carboxamide]",A (A means greater than or equal to 10)
7,"N#CCC1(n2cc(-c3ncnc4[nH]ccc34)cn2)CN(c2ccc(C(=O)NC3CC(F)(F)C3)nc2)C1 [Example 12, 5-{3-(Cyanomethyl)-3-[4-(7H-pyrrolo[2,3-d]pyrimidin-4-yl)-1H-pyrazol-1-yl]azetidin-1-yl}-N-(3,3-difluorocyclobutyl)pyridine-2-carboxamide]",A (A means greater than or equal to 10)
8,"CC(NC(=O)c1ccc(N2CC(CC#N)(n3cc(-c4ncnc5[nH]ccc45)cn3)C2)cc1)C1CCN(C)CC1 (centres unmarked) [Example 20, 4-{3-(Cyanomethyl)-3-[4-(7H-pyrrolo[2,3-d]pyrimidin-4-yl)-1H-pyrazol-1-yl]azetidin-1-yl}-N-[1-(1-methylpiperidin-4-yl)ethyl]benzamide]",A (A means greater than or equal to 10)
9,"CCNC(=O)c1ccc(N2CC(CC#N)(n3cc(-c4ncnc5[nH]ccc45)cn3)C2)cn1 [Example 24, 5-{3-(Cyanomethyl)-3-[4-(7H-pyrrolo[2,3-d]pyrimidin-4-yl)-1H-pyrazol-1-yl]azetidin-1-yl}-N-ethylpyridine-2-carboxamide]",A (A means greater than or equal to 10)
10,"CC[C@@H](C)NC(=O)c1ccc(N2CC(CC#N)(n3cc(-c4ncnc5[nH]ccc45)cn3)C2)cc1.O=C(O)C(F)(F)F.O=C(O)C(F)(F)F [Example 25, 4-{3-(Cyanomethyl)-3-[4-(7H-pyrrolo[2,3-d]pyrimidin-4-yl)-1H-pyrazol-1-yl]azetidin-1-yl}-N-[(1R)-1-methylpropyl]benzamide bis(trifluoroacetate)]",A (A means greater than or equal to 10)
11,"CC(C)NC(=O)c1ccc(N2CC(CC#N)(n3cc(-c4ccnc5[nH]ccc45)cn3)C2)c(F)c1 [Example 27, 4-{3-(Cyanomethyl)-3-[4-(1H-pyrrolo[2,3-b]pyridin-4-yl)-1H-pyrazol-1-yl]azetidin-1-yl}-3-fluoro-N-isopropylbenzamide]",A (A means greater than or equal to 10)

# Further lines, results first:
row,JAK2/JAK1,Structure (SMILES)
1,A (A means greater than or equal to 10),"CC(C)NC(=O)c1ccc(N2CC(CC#N)(n3cc(-c4ncnc5[nH]ccc45)cn3)C2)c(F)c1 [Example 3, 4-{3-(Cyanomethyl)-3-[4-(7H-pyrrolo[2,3-d]pyrimidin-4-yl)-1H-pyrazol-1-yl]azetidin-1-yl}-3-fluoro-N-isopropylbenzamide]"
2,A (A means greater than or equal to 10),"CC(C)NC(=O)c1cc(F)c(N2CC(CC#N)(n3cc(-c4ncnc5[nH]ccc45)cn3)C2)cc1F [Example 6, 4-{3-(Cyanomethyl)-3-[4-(7H-pyrrolo[2,3-d]pyrimidin-4-yl)-1H-pyrazol-1-yl]azetidin-1-yl}-2,5-difluoro-N-isopropylbenzamide]"
3,A (A means greater than or equal to 10),"CC(C)NC(=O)c1cc(Cl)c(N2CC(CC#N)(n3cc(-c4ncnc5[nH]ccc45)cn3)C2)cc1F [Example 8, 5-Chloro-4-{3-(cyanomethyl)-3-[4-(7H-pyrrolo[2,3-d]pyrimidin-4-yl)-1H-pyrazol-1-yl]azetidin-1-yl}-2-fluoro-N-isopropylbenzamide]"
4,A (A means greater than or equal to 10),"CC(C)NC(=O)c1ccc(N2CC(CC#N)(n3cc(-c4ncnc5[nH]ccc45)cn3)C2)cn1 [Example 9, 5-{3-(Cyanomethyl)-3-[4-(7H-pyrrolo[2,3-d]pyrimidin-4-yl)-1H-pyrazol-1-yl]azetidin-1-yl}-N-isopropylpyridine-2-carboxamide]"
5,A (A means greater than or equal to 10),"C[C@H](NC(=O)c1ccc(N2CC(CC#N)(n3cc(-c4ncnc5[nH]ccc45)cn3)C2)c(F)c1)C(F)(F)F [Example 10, 4-{3-(Cyanomethyl)-3-[4-(7H-pyrrolo[2,3-d]pyrimidin-4-yl)-1H-pyrazol-1-yl]azetidin-1-yl}-3-fluoro-N-[(1S)-2,2,2-trifluoro-1-methylethyl]benzamide]"
6,A (A means greater than or equal to 10),"CC(C)NC(=O)c1ccc(N2CC(CC#N)(n3cc(-c4ncnc5[nH]ccc45)cn3)C2)cc1 [Example 13, 4-{3-(Cyanomethyl)-3-[4-(7H-pyrrolo[2,3-d]pyrimidin-4-yl)-1H-pyrazol-1-yl]azetidin-1-yl}-N-isopropylbenzamide]"
7,A (A means greater than or equal to 10),"C[C@H](NC(=O)c1ccc(N2CC(CC#N)(n3cc(-c4ncnc5[nH]ccc45)cn3)C2)cc1F)C1CCCCC1 [Example 15, 4-{3-(Cyanomethyl)-3-[4-(7H-pyrrolo[2,3-d]pyrimidin-4-yl)-1H-pyrazol-1-yl]azetidin-1-yl}-N-[(1S)-1-cyclohexylethyl]-2-fluorobenzamide]"
8,A (A means greater than or equal to 10),"C[C@@H](NC(=O)c1ccc(N2CC(CC#N)(n3cc(-c4ncnc5[nH]ccc45)cn3)C2)c(F)c1)C(F)(F)F [Example 16, 4-{3-(Cyanomethyl)-3-[4-(7H-pyrrolo[2,3-d]pyrimidin-4-yl)-1H-pyrazol-1-yl]azetidin-1-yl}-3-fluoro-N-[(1R)-2,2,2-trifluoro-1-methylethyl]benzamide]"
9,A (A means greater than or equal to 10),"N#CCC1(n2cc(-c3ncnc4[nH]ccc34)cn2)CN(c2ccc(C(=O)NC3(C(F)(F)F)CC3)nc2)C1 [Example 17, 5-{3-(Cyanomethyl)-3-[4-(7H-pyrrolo[2,3-d]pyrimidin-4-yl)-1H-pyrazol-1-yl]azetidin-1-yl}-N-[1-(trifluoromethyl)cyclopropyl]pyridine-2-carboxamide]"
10,A (A means greater than or equal to 10),"C[C@@H](NC(=O)c1cc(F)c(N2CC(CC#N)(n3cc(-c4ncnc5[nH]ccc45)cn3)C2)cc1F)C1CC1 [Example 21, 4-{3-(Cyanomethyl)-3-[4-(7H-pyrrolo[2,3-d]pyrimidin-4-yl)-1H-pyrazol-1-yl]azetidin-1-yl}-N-[(1R)-1-cyclopropylethyl]-2,5-difluorobenzamide]"
11,A (A means greater than or equal to 10),"C[C@H](NC(=O)c1ccc(N2CC(CC#N)(n3cc(-c4ncnc5[nH]ccc45)cn3)C2)cc1F)C(F)(F)F [Example 22, 4-{3-(Cyanomethyl)-3-[4-(7H-pyrrolo[2,3-d]pyrimidin-4-yl)-1H-pyrazol-1-yl]azetidin-1-yl}-2-fluoro-N-[(1S)-2,2,2-trifluoro-1-methylethyl]benzamide]"
12,A (A means greater than or equal to 10),"C[C@H](NC(=O)c1cc(F)c(N2CC(CC#N)(n3cc(-c4ncnc5[nH]ccc45)cn3)C2)cc1F)C(F)(F)F [Example 28, 4-{3-(Cyanomethyl)-3-[4-(7H-pyrrolo[2,3-d]pyrimidin-4-yl)-1H-pyrazol-1-yl]azetidin-1-yl}-2,5-difluoro-N-[(1S)-2,2,2-trifluoro-1-methylethyl]benzamide]"
13,A (A means greater than or equal to 10),"C[C@@H](NC(=O)c1cc(F)c(N2CC(CC#N)(n3cc(-c4ncnc5[nH]ccc45)cn3)C2)cc1F)C(F)(F)F [Example 29, 4-{3-(Cyanomethyl)-3-[4-(7H-pyrrolo[2,3-d]pyrimidin-4-yl)-1H-pyrazol-1-yl]azetidin-1-yl}-2,5-difluoro-N-[(1R)-2,2,2-trifluoro-1-methylethyl]benzamide]"
14,A (A means greater than or equal to 10),"C[C@@H](NC(=O)c1cnc(N2CC(CC#N)(n3cc(-c4ncnc5[nH]ccc45)cn3)C2)cn1)C(F)(F)F [Example 30, 5-{3-(Cyanomethyl)-3-[4-(7H-pyrrolo[2,3-d]pyrimidin-4-yl)-1H-pyrazol-1-yl]azetidin-1-yl}-N-[(1R)-2,2,2-trifluoro-1-methylethyl]pyrazine-2-carboxamide]"
15,A (A means greater than or equal to 10),"C[C@H](NC(=O)c1cnc(N2CC(CC#N)(n3cc(-c4ncnc5[nH]ccc45)cn3)C2)cn1)C(F)(F)F [Example 31, 5-{3-(Cyanomethyl)-3-[4-(7H-pyrrolo[2,3-d]pyrimidin-4-yl)-1H-pyrazol-1-yl]azetidin-1-yl}-N-[(1S)-2,2,2-trifluoro-1-methylethyl]pyrazine-2-carboxamide]"
